Experimental data: patent US12077503B2, “Substituted cyclic amides and their use as herbicides” (FMC CORPORATION, priority 2015, dated 2024)
Like-named read-outs stand apart in the source and are kept apart here.

Tests used:
Type in all cases: in vivo
[1] = tested on: barnyardgrass (Echinochloa crus-galli); experiment: Test B flooded paddy test; details: Echinochloa crus-galli, 250 g ai/ha, Flood; 0 to 100 scale where 0 is no effect and 100 is complete control; read-out: Barnyardgrass plant response rating
Outline: (§1)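 2-leaf plants; pots flooded 3 cm over soil; cpd added to paddy water; depth held; greenhouse 13–15 d; visual rating vs controls, 0 = no effect, 100 = complete control.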

[2] = tested on: ducksalad (Heteranthera limosa); experiment: Test B flooded paddy test; details: Heteranthera limosa, 250 g ai/ha, Flood; 0 to 100 scale where 0 is no effect and 100 is complete control; read-out: Ducksalad plant response rating
Outline: as §1

rice (Oryra sativa) = experiment: Test B flooded paddy test; details: Oryza sativa, 250 g ai/ha, Flood; 0 to 100 scale where 0 is no effect and 100 is complete control; read-out: Rice plant response rating
Outline: as §1

[3] = tested on: sedge, umbrella (small-flower umbrella sedge, Cyperus difformis); experiment: Test B flooded paddy test; details: Cyperus difformis, 250 g ai/ha, Flood; 0 to 100 scale where 0 is no effect and 100 is complete control; read-out: Sedge, Umbrella plant response rating
Outline: as §1

[4] = tested on: barnyardgrass (Echinochloa crus-galli); experiment: Test A postemergence; details: Echinochloa crus-galli, post-emergence, 240 h, postemergence; for pest or weed control at 125 g/ha: 125 g ai/ha, visual injury on 0 to 100 scale (0 no effect, 100 complete control); for pest or weed control at 500 g/ha: 500 g ai/ha
Outline: (§2)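 Greenhouse, ~10 d after spray; visual injury vs untreated controls, 0 = no effect, 100 = complete control. Preemergence: directed soil spray over planted seeds. Postemergence: plants 2–10 cm, 1–2 leaf stage. Loam/sand blend. Compound in non-phytotoxic solvent with surfactant.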

corn (Zea mays) = experiment: Test A postemergence; details: Zea mays, post-emergence, 240 h, postemergence; for plant injury at 125 g/ha: 125 g ai/ha, visual injury on 0 to 100 scale (0 no effect, 100 complete control); for plant injury at 125 g/ha / Corn plant response rating (crop injury, 0 = no effect, 100 = complete kill) at 500 g/ha: approx. 10 d; for Corn plant response rating (crop injury, 0 = no effect, 100 = complete kill) at 500 g/ha: visual injury, 0 to 100 scale (0 no effect, 100 complete control)
Outline: as §2

[5] = tested on: ragweed (common ragweed, Ambrosia elatior); experiment: Test A postemergence; details: Ambrosia artemisiifolia, post-emergence, 240 h, postemergence, read-out: Ragweed plant response rating; for pest or weed control at 125 g/ha: 125 g ai/ha, visual injury on 0 to 100 scale (0 no effect, 100 complete control), approx. 10 d
Outline: as §2

[6] = tested on: blackgrass (Alopecurus myosuroides); experiment: Test A postemergence; details: Alopecurus myosuroides, post-emergence, 240 h, postemergence; for pest or weed control at 125 g/ha: 125 g ai/ha, visual injury on 0 to 100 scale (0 no effect, 100 complete control); for pest or weed control at 500 g/ha: 500 g ai/ha
Outline: as §2

[7] = tested on: Galium (catchweed bedstraw, Galium aparine); experiment: Test A postemergence; details: Galium, post-emergence, 240 h, postemergence; for pest or weed control at 125 g/ha: 125 g ai/ha, visual injury on 0 to 100 scale (0 no effect, 100 complete control); for pest or weed control at 500 g/ha: 500 g ai/ha
Outline: as §2

Kochia (Kochia scoparia) = experiment: Test A postemergence; details: Bassia scoparia, post-emergence, 240 h, postemergence; for pest or weed control at 125 g/ha: 125 g ai/ha, visual injury on 0 to 100 scale (0 no effect, 100 complete control); for pest or weed control at 500 g/ha: 500 g ai/ha
Outline: as §2

[8] = tested on: wheat (Triticum aestivum); experiment: Test A postemergence; details: Triticum aestivum, post-emergence, 240 h, postemergence, read-out: Wheat plant response rating; for plant injury at 125 g/ha: 125 g ai/ha, visual injury on 0 to 100 scale (0 no effect, 100 complete control), approx. 10 d
Outline: as §2

[9] = tested on: pigweed (Amaranthus retroflexus); experiment: Test A postemergence; details: Amaranthus retroflexus, post-emergence, 240 h, postemergence, read-out: Pigweed plant response rating; for pest or weed control at 125 g/ha: 125 g ai/ha, visual injury on 0 to 100 scale (0 no effect, 100 complete control), approx. 10 d
Outline: as §2

[10] = tested on: ryegrass, Italian (Italian ryegrass, Lolium multiflorum); experiment: Test A postemergence; details: Lolium multiflorum, post-emergence, 240 h, postemergence, read-out: Ryegrass, Italian plant response rating; for pest or weed control at 125 g/ha: 125 g ai/ha, visual injury on 0 to 100 scale (0 no effect, 100 complete control), approx. 10 d
Outline: as §2

[11] = tested on: giant foxtail (Setaria faberii); experiment: Test A postemergence; details: Setaria faberi, post-emergence, 240 h, postemergence; for pest or weed control at 125 g/ha: 125 g ai/ha, visual injury on 0 to 100 scale (0 no effect, 100 complete control); for pest or weed control at 500 g/ha: 500 g ai/ha
Outline: as §2

[12] = tested on: barnyardgrass (Echinochloa crus-galli); experiment: Test A preemergence; details: Echinochloa crus-galli, pre-emergence, 240 h; for pest or weed control at 125 g/ha: 125 g ai/ha, Preemergence, visual injury rating after approximately 10 d, read-out: Barnyardgrass plant response rating (0 to 100 scale, 0 is no effect, 100 is complete control); for pest or weed control at 500 g/ha: 500 g ai/ha, preemergence, visual injury rating about 10 d after treatment, 0 to 100 scale (0 no effect, 100 complete control), read-out: Barnyardgrass plant response rating
Outline: as §2

[13] = approx. 10 d, read-out: Barnyardgrass plant response rating
[14] = visual injury, 0 to 100 scale (0 no effect, 100 complete control), approx. 10 d, read-out: Plant response rating, Barnyardgrass
[15] = read-out: Corn plant response rating
[16] = approx. 10 d, read-out: Blackgrass plant response rating
[17] = visual injury, 0 to 100 scale (0 no effect, 100 complete control), approx. 10 d, read-out: Plant response rating, Blackgrass
[18] = approx. 10 d, read-out: Galium plant response rating
[19] = visual injury, 0 to 100 scale (0 no effect, 100 complete control), approx. 10 d, read-out: Plant response rating, Galium
[20] = approx. 10 d, read-out: Kochia plant response rating
[21] = visual injury, 0 to 100 scale (0 no effect, 100 complete control), approx. 10 d, read-out: Plant response rating, Kochia
[22] = approx. 10 d, read-out: Foxtail, Giant plant response rating
[23] = visual injury, 0 to 100 scale (0 no effect, 100 complete control), approx. 10 d, read-out: Plant response rating, Foxtail, Giant
[24] = 500 g ai/ha, 0 to 100 scale, 0 is no effect, 100 is complete control

Compound	pest or weed control at 250 g/ha [1]	pest or weed control at 250 g/ha [2]	pest or weed control at 250 g/ha (rice (Oryra sativa))	pest or weed control at 250 g/ha [3]	pest or weed control at 125 g/ha [4, 13]	pest or weed control at 500 g/ha [4, 14]	plant injury at 125 g/ha (corn (Zea mays); [15])	Corn plant response rating (crop injury, 0 = no effect, 100 = complete kill) at 500 g/ha (corn (Zea mays); 500 g ai/ha)	pest or weed control at 125 g/ha [5]	pest or weed control at 125 g/ha [6, 16]	pest or weed control at 500 g/ha [6, 17]	pest or weed control at 125 g/ha [7, 18]	pest or weed control at 500 g/ha [7, 19]	pest or weed control at 125 g/ha (Kochia (Kochia scoparia); [20])	plant injury at 125 g/ha [8]	pest or weed control at 125 g/ha [9]	pest or weed control at 125 g/ha [10]	pest or weed control at 125 g/ha [11, 22]	pest or weed control at 125 g/ha [12]	pest or weed control at 500 g/ha [12]	further results
Cc1cc([C@H]2CNC(=O)[C@@H]2C(=O)Nc2ccc(F)cc2F)ccc1C(F)(F)F [Compound 1043]	0%	90%	0%	0%	50%	80%	20%	60%	0%	20%	30%	20%	40%	0%	0%	0%	0%	70%	80%	90%	pest or weed control at 500 g/ha (Kochia (Kochia scoparia); [21]): 40%; pest or weed control at 500 g/ha [11, 23]: 80%
CN1CC(c2ccccc2OC(F)(F)C(F)F)C(C(=O)Nc2ccccc2F)C1=O (centres unmarked) [Compound 1053]	0%	0%	0%	0%	0%	0%	0%	0%	0%	0%	0%	0%	0%	0%	0%	0%	0%	0%	0%	60%	pest or weed control at 500 g/ha (Kochia (Kochia scoparia); [21]): 0%; pest or weed control at 500 g/ha [11, 23]: 0%
O=C1NCC(c2ccccc2OC(F)(F)C(F)F)C1C(=O)Nc1cccc(F)c1F (centres unmarked) [Compound 1054]	0%	0%	0%	0%	0%	0%	0%	0%	0%	0%	0%	0%	0%	0%	0%	0%	0%	0%	0%	0%	pest or weed control at 500 g/ha (Kochia (Kochia scoparia); [21]): 0%; pest or weed control at 500 g/ha [11, 23]: 0%
CSc1ccccc1NC(=O)C1C(=O)NCC1C=C(C)C (centres unmarked) [Compound 1055]	0%	30%	0%	0%	0%		0%		0%	0%		0%		0%	0%	0%	0%	0%	0%	0%	pest or weed control at 500 g/ha ([4]; 0 to 100 scale, 0 is no effect, 100 is complete control, read-out: Barnyardgrass plant response rating): 0%; plant injury at 500 g/ha (corn (Zea mays); 500 g ai/ha, 0 to 100 scale, 0 is no effect, 100 is complete control, read-out: Corn plant response rating): 0%; pest or weed control at 500 g/ha [5, 24]: 0%; pest or weed control at 500 g/ha ([6]; 0 to 100 scale, 0 is no effect, 100 is complete control, read-out: Blackgrass plant response rating): 0%; pest or weed control at 500 g/ha ([7]; 0 to 100 scale, 0 is no effect, 100 is complete control, read-out: Galium plant response rating): 0%; pest or weed control at 500 g/ha (Kochia (Kochia scoparia); 0 to 100 scale, 0 is no effect, 100 is complete control, read-out: Kochia plant response rating): 0%; plant injury at 500 g/ha [8, 24]: 0%; pest or weed control at 500 g/ha [9, 24]: 0%; pest or weed control at 500 g/ha [10, 24]: 0%; pest or weed control at 500 g/ha ([11]; 0 to 100 scale, 0 is no effect, 100 is complete control, read-out: Foxtail, Giant plant response rating): 0%
